This experiment addresses T1, HIV-integrase (Human immunodeficiency virus type 1 group M subtype B, UniProt P12497).
T1 construct: Recombinant integrase (0.26 ng) was incubated with the beads
Kind of experiment: HIV-Integrase Inhibition Activity (SPA bead strand transfer assay). The class given is biochemical. The settings on record: recombinant integrase, biotin labeled substrate DNA on SPA beads, P33 labeled target DNA; read-out: Activity (IC50 against HIV-integrase). As to the method:
HIV-Integrase InhibitionActivity. To evaluate in-vitro activity against HIV-integrase, 5 pmole of biotin labeled substrate DNA was bound to 100 μg of Streptavidin coated PVT SPA beads (Amersham Pharmacia Biotech). Recombinant integrase (0.26 ng) was incubated with the beads for 90 min at 37° C. Unbound enzyme was removed by washing the complex followed by addition of inhibitors and 0.1 fmol of P33 labeled target DNA. The reaction was stopped by adding EDTA to a final concentration of 10 mM. Samples were counted in TopCountNXT (Packard) and the CPM was used as a measure of integration. The reaction condition was as described in A. Engelman and R. Craigie, J. Virol. 69, 5908-5911 (1995). The sequences of substrate and target DNA were described in Nucleic Acid Research 22, 1121-1122 (1994).
Activity equal to A refers to a compound having IC50=0.002 to 0.10 μM while B and C denote compounds having IC50=0.1 to 1.0 μM and IC50≧1.0 μM respectively.

As usually defined, the IC50 is the midpoint of a concentration-inhibition curve. In the case of `CC(=O)N1CCN(S(=O)(=O)c2cc(F)ccc2CNC(=O)c2nc3n(c(=O)c2O)CCOC32CCOCC2)CC1` [Example 10], the IC50 lay within 0.002 to 0.1 µM. As for `COC(=O)N1CCN(S(=O)(=O)c2cc(F)ccc2CNC(=O)c2nc3n(c(=O)c2O)CCOC3(C)C)CC1` [Example 18], the figure is 0.002 to 0.1 µM; as for `CC1(C)OCCn2c1nc(C(=O)NCc1ccc(F)cc1S(=O)(=O)N1CCOCC1)c(O)c2=O` [Example 27], 0.002 to 0.1 µM. Consider `COC(=O)N1CCN(S(=O)(=O)c2cc(F)ccc2CNC(=O)c2nc3n(c(=O)c2O)CCOC32CCOCC2)CC1` [Example 3], for which the concentration for half-maximal inhibition (IC50) was 0.002 to 0.1 µM. In the case of `CC1(C)OCCn2c1nc(C(=O)NCc1ccc(F)cc1S(=O)(=O)N1CCC3(CCNC3=O)CC1)c(O)c2=O` [Example 32], the concentration for half-maximal inhibition (IC50) is 0.002 to 0.1 µM.

As to `CN(C)C(=O)N1CCN(S(=O)(=O)c2cc(F)ccc2CNC(=O)c2nc3n(c(=O)c2O)CCOC32CCOCC2)CC1` [Example 7], the IC50 lay in the range of 0.002 to 0.1 µM.

Take `C[C@@H]1CN(S(=O)(=O)c2cc(F)ccc2CNC(=O)c2nc3n(c(=O)c2O)CCOC3(C)C)CCN1C(=O)OC(C)(C)C` [Example 37]: the IC50 was 0.002 to 0.1 µM.

In the case of `O=C(NCc1ccc(F)cc1S(=O)(=O)N1CCNCC1)c1nc2n(c(=O)c1O)CCOC21CCCC1` [Example 22], the IC50 is 0.002 to 0.1 µM. As for `CC1CN(S(=O)(=O)c2cc(F)ccc2CNC(=O)c2nc3n(c(=O)c2O)CCOC3(C)C)CC(C)N1` (stereo not shown) [Example 35], the figure is 0.002 to 0.1 µM; as for `CN(C)[C@@H]1COC[C@H]1N1CCN(S(=O)(=O)c2cc(F)ccc2CNC(=O)c2nc3n(c(=O)c2O)CCOC3(C)C)CC1` [Example 40], 0.002 to 0.1 µM. For the compound `CC1(C)OCCn2c1nc(C(=O)NCc1ccc(F)cc1S(=O)(=O)N1CCC(O)C1)c(O)c2=O` (stereo not shown) [Example 29], the IC50 fell in the range of 0.002 to 0.1 µM.

Regarding `CC1(C)OCCn2c1nc(C(=O)NCc1ccc(F)cc1S(=O)(=O)N1CCN(S(C)(=O)=O)CC1)c(O)c2=O` [Example 16], the concentration for half-maximal inhibition (IC50) was in the range of 0.002 to 0.1 µM. Then `CC1(C)OCCn2c1nc(C(=O)NCc1ccc(F)cc1S(=O)(=O)N1CCN(C(=O)N3CCOCC3)CC1)c(O)c2=O` [Example 17], with 0.002 to 0.1 µM; and `CS[C@@H]1COC[C@H]1N1CCN(S(=O)(=O)c2cc(F)ccc2CNC(=O)c2nc3n(c(=O)c2O)CCOC3(C)C)CC1` [Example 38], with 0.002 to 0.1 µM; and `CN1CCN(S(=O)(=O)c2cc(F)ccc2CNC(=O)c2nc3n(c(=O)c2O)CCOC3(C)C)CC1` [Example 15], with 0.002 to 0.1 µM.

`C[C@@H]1CN(S(=O)(=O)c2cc(F)ccc2CNC(=O)c2nc3n(c(=O)c2O)CCOC3(C)C)CCN1` [Example 41]: the IC50 lay within 0.002 to 0.1 µM. Then `CN(C)C(=O)N1CCN(S(=O)(=O)c2cc(F)ccc2CNC(=O)c2nc3n(c(=O)c2O)CCOC3(C)C)CC1` [Example 19], with 0.002 to 0.1 µM; and `CCN1CCN(S(=O)(=O)c2cc(F)ccc2CNC(=O)c2nc3n(c(=O)c2O)CCOC32CCOCC2)CC1` [Example 5], with 0.002 to 0.1 µM.

For the compound `CC1(C)OCCn2c1nc(C(=O)NCc1ccc(F)cc1S(=O)(=O)N1CCOC(CN3CCCC3)C1)c(O)c2=O` (stereo not shown) [Example 39], the IC50 was 0.002 to 0.1 µM. For `CC1(C)OCCn2c1nc(C(=O)NCc1ccc(F)cc1S(=O)(=O)N1CCCCCC1)c(O)c2=O` [Example 28], the IC50 was 0.002 to 0.1 µM. Then `O=C(NCc1ccc(F)cc1S(=O)(=O)N1CCNCC1)c1nc2n(c(=O)c1O)CCOC21CCOCC1` [Example 1], with 0.002 to 0.1 µM; and `CC1(C)OCCn2c1nc(C(=O)NCc1ccc(F)cc1S(=O)(=O)N1CCC1)c(O)c2=O` [Example 26], with 0.002 to 0.1 µM. As to `O=C(NCc1ccc(F)cc1S(=O)(=O)N1CCOCC1)c1nc2n(c(=O)c1O)CCOC21CCCC1` [Example 12], the 50% inhibitory concentration (IC50) lay in the range of 0.002 to 0.1 µM. As for `CN(C)S(=O)(=O)N1CCN(S(=O)(=O)c2cc(F)ccc2CNC(=O)c2nc3n(c(=O)c2O)CCOC3(C)C)CC1` [Example 21], the figure is 0.002 to 0.1 µM. As to `CC1CN(S(=O)(=O)c2cc(F)ccc2CNC(=O)c2nc3n(c(=O)c2O)CCOC3(C)C)CC(C)N1C` (stereo not shown) [Example 36], the IC50 was in the range of 0.002 to 0.1 µM. As for `CC(=O)N(C)C1CCN(S(=O)(=O)c2cc(F)ccc2CNC(=O)c2nc3n(c(=O)c2O)CCOC3(C)C)C1` (stereo not shown) [Example 34], the figure is 0.002 to 0.1 µM; as for `CC1(C)OCCn2c1nc(C(=O)NCc1ccc(F)cc1S(=O)(=O)N1CCC3(CC1)OCCO3)c(O)c2=O` [Example 31], 0.002 to 0.1 µM.

Turning to `CN1CCN(S(=O)(=O)c2cc(F)ccc2CNC(=O)c2nc3n(c(=O)c2O)CCOC32CCCC2)CC1` [Example 23], the IC50 fell in the range of 0.002 to 0.1 µM. In the case of `O=C(NCc1ccc(F)cc1S(=O)(=O)N1CCN(C(=O)N2CCOCC2)CC1)c1nc2n(c(=O)c1O)CCOC21CCOCC1` [Example 9], the concentration for half-maximal inhibition (IC50) was in the range of 0.002 to 0.1 µM. On to `CC1(C)OCCn2c1nc(C(=O)NCc1ccc(F)cc1S(=O)(=O)N1CCCC1)c(O)c2=O` [Example 33], for which the IC50 is 0.002 to 0.1 µM.

Consider `O=C(NCc1ccc(F)cc1S(=O)(=O)N1CCOCC1)c1nc2n(c(=O)c1O)CCOC21CCOCC1` [Example 11], for which the 50% inhibitory concentration (IC50) lay in the range of 0.002 to 0.1 µM.

With `CN1CCN(S(=O)(=O)c2cc(F)ccc2CNC(=O)c2nc3n(c(=O)c2O)CCOC32CCOCC2)CC1` [Example 2], the IC50 fell in the range of 0.002 to 0.1 µM.

As for `CC(=O)N1CCN(S(=O)(=O)c2cc(F)ccc2CNC(=O)c2nc3n(c(=O)c2O)CCOC3(C)C)CC1` [Example 20], the IC50 lay in the range of 0.002 to 0.1 µM. Then `CN1CCN(S(=O)(=O)c2cc(F)ccc2CNC(=O)c2nc3n(c(=O)c2O)CCOC32CCC2)CC1` [Example 24], with 0.002 to 0.1 µM; and `O=C(NCc1ccc(F)cc1S(=O)(=O)N1CCOCC1)c1nc2n(c(=O)c1O)CCCC21CCCC1` [Example 13], with 0.002 to 0.1 µM.

On to `CN(C)S(=O)(=O)N1CCN(S(=O)(=O)c2cc(F)ccc2CNC(=O)c2nc3n(c(=O)c2O)CCOC32CCOCC2)CC1` [Example 8], for which the 50% inhibitory concentration (IC50) lay within 0.002 to 0.1 µM. As for `CC1(C)OCCn2c1nc(C(=O)NCc1ccc(F)cc1S(=O)(=O)N1CCCCC1)c(O)c2=O` [Example 30], the figure is 0.002 to 0.1 µM; as for `CC1(C)OCCn2c1nc(C(=O)NCc1ccc(F)cc1S(=O)(=O)N1CCNCC1)c(O)c2=O` [Example 14], 0.002 to 0.1 µM.

In the case of `C[C@@H]1CN(S(=O)(=O)c2cc(F)ccc2CNC(=O)c2nc3n(c(=O)c2O)CCOC3(C)C)CCN1C` [Example 42], the IC50 lay in the range of 0.002 to 0.1 µM. For the compound `CC1(C)OCCn2c1nc(C(=O)NCc1ccc(F)cc1S(=O)(=O)N1CCC(O)CC1)c(O)c2=O` [Example 25], the IC50 lay in the range of 0.002 to 0.1 µM.

The values above are taken from patent US7902182B2, “HIV integrase inhibitors” (priority 2005, dated 2011).
